# Assay results published in US20070293666A1, “Optical Filter and Its Applications, and Porphyrin Compound Used in Optical Filter” (Mitsui Chemicals, Inc., priority 2004, published 2007).
# Experiments:
# Assay type in all cases: physicochemical
# [1] = Absorption spectrum in chloroform (maximum absorption wavelength, gram absorption coefficient, 550/525 nm coefficient ratio); settings: chloroform solution
# Method: (§1) Compounds represented by the compound Nos. 1-1, 1-2, 1-3, 1-4 and 1-7 (Table 1-1) were synthesized in the same manner as in Examples 1-1 and 1-2. With respect to compounds synthesized in Example 1-2 and Synthesis Example 1-1 along with these compounds, the maximum absorption wavelength (λmax), the gram absorption coefficient (εg) and solubility were measured.
# (§2) λmax and εg are values in the chloroform solution, while the solubility is weight % based on acetone.
# With respect to the compounds represented by the compound Nos. 1-2, 1-3, 1-6 and 1-7 synthesized in Examples 1-2 and 1-3 (corresponding to compounds (3-B), (3-C), (3-E) and (3-F) respectively) along with the obtained compound (3-A), the maximum absorption wavelength and the ratio of the absorption coefficient at a wavelength of 550 nm to the absorption coefficient at a wavelength of 525 nm, which were measured in a chloroform solvent, are shown in Table 3-1. [drawing 26] [drawing 27] [drawing 28] [drawing 29]
# [2] = Solubility in acetone; set-up: key: ∘: completely dissolved; x: not completely dissolved
# Method: as §1, §2
# [3] = Light transmittance of spin-coated optical filter (acrylic adhesive on glass plate); settings: 0.1 weight % dye diluting agent mixed with acrylic adhesive, dry film 5 μm
# Method: (§3) A compound represented by the compound No. 1-4 (Table 1-1) was dissolved in a mixed solvent of acetone and toluene (weight ratio 50:50) such that the concentration was 0.1 weight % to give a dye-containing diluting agent. An acrylic adhesive and the dye-containing diluting agent (weight ratio 50:70) were mixed and applied by spin coating at 800 rpm for 30 seconds onto a glass plate, and the resulting material was dried to prepare an optical filter. The dry film thickness of the coating layer was 5 μm. In the above filter, light transmittance was measured by using a spectrophotometer (UV-3100, manufactured by Shimadzu Corporation). Light transmittance in a wavelength of 550 nm was 47.2%.
# as §3, with “2-12” for “1-4”, “2-2) synthesized in the same manner as in Examples 2-1 and 2-2” for “1-1)”, “plate” for “plate,”, “Light transmittance in a wavelength of 550 nm was 47.2%.” left out
smiles,measurement,setting,value
CCCCCCCCCCOc1ccc(C2=c3nc(c4c5cccc6cccc(c3=4)c65)C(c3ccc(OCCCCCCCCCC)cc3)=c3c4c(c5[n]3[Cu][n]3c2c2c(c3C(c3ccc(OCCCCCCCCCC)cc3)=c3nc(c6c7cccc8cccc(c3=6)c87)C=5c3ccc(OCCCCCCCCCC)cc3)-c3cccc5cccc-2c35)-c2cccc3cccc-4c23)cc1 [1-4],εg (gram absorption coefficient),[1],"115,000"
same,λmax,[1],552 nm
same,Solubility 0.1%,[2]; 0.1 weight % based on acetone,∘
same,Solubility 0.2%,[2]; 0.2 weight % based on acetone,∘
same,Solubility 1.0%,[2]; 1.0 weight % based on acetone,∘
same,Light transmittance in a wavelength of 550 nm,[3],47.2%
